In data set [1] the test system is Myocardial Infarction Model. The data set is described as follows: Cardiac function (echocardiography, LV hemodynamics) in the myocardial infarction model. It counts as in vivo, mice. As to conditions: MI model, 100 mg/kg/day in food admix, three months. Here is the method:
8-12 weeks old mice (WT C57B16 for GP1 compound experiments) or 8-12 weeks old mice with genetic inactivation of lcn2 (as described in Martinez-martinez et al., Hypertension 2017, December; 70(6):1148-1156) have been used. LV diastolic and systolic diameters were measured in anesthetized (isofluorane 1.5%) mice, according to the American Society of Echocardiography's leading-edge method (using Vivid 7 echograph a 14 Mhz probe). In addition, LV outflow velocity was measured by pulsed waves, and CO was calculated as follows: CO=aortic VTI×[πx·(LV outflow diameter/2)^2]×heart rate, where VTI is velocity-time integral.
LV hemodynamic was assessed as described previously.
Mice were anesthetized (chloral 320 mg·kg−1, IP) and the carotid artery cannulated with a pressure-volume catheter (SPR839, Millar-Instruments, USA) and the catheter was advanced into the LV. Pressure-volume loops were obtained at baseline and during loading by gently occluding the abdominal aorta. LV end-systolic and end-diastolic pressures, dP/dtmax/min, LV relaxation constant tau and were measured/calculated with IOX software (EMKA, France).

The test system of data set [2] is CKD Mouse Model. As to the kind of experiment: Renal fibrosis in the CKD mouse model (sirius red staining). The format is in vivo, mice. Particulars: two months administration; FIG. 14 A-B. How it is done: (§1) Chronic kidney disease (CKD) was induced by subtotal nephrectomy (Nx) in eight-weeks-old FVB male mice (25-26 g). All surgeries were performed under ketamine/xylazine anaesthesia. Briefly, the left kidney was exposed, and the upper and lower poles were tied with a poly-glycolic acid suture line. The peritoneum and skin were then sutured, and the animals were returned to their individual cages. After one week of recovery, the second kidney was removed. Removal of the second kidney represents TO. Sham mice were subjected to the same surgical procedures but neither renal poles nor the right kidney were removed. Mice were monitored for any sign of distress, and those observed to be experiencing severe, unrelievable pain were euthanized. Renal failure was assessed by the measure of plasma creatinine and urea with an automatic analyser (Konelab 20i; Thermo Fisher Scientific, Vernon Hills, Ill.) at weeks 4 and 10 post-Nx.

The subject of data set [3] is Myocardial Infarction Model. The data set is described as follows: Cardiac fibrosis and collagen immunostaining in the myocardial infarction model. It counts as in vivo, mice. As to conditions: MI model, 100 mg/kg/day in food admix, three months. An excerpt:
After assessment of cardiac hemodynamics, the heart was removed, and the atria and the ventricles were separated and weighed individually. A section of the left ventricle was immersed in Bouin fixative solution. After fixation, the sections were dehydrated and embedded in paraffin. From these sections, […] histologic slices were obtained and were stained with Sirius Red. For the measurement of cardiac collagen density, slides were examined and photographed under a light microscope (Zeiss) at 40× magnification. Collagen content was calculated as percentage of collagen area to total area of the image. Perivascular collagen was excluded from the analysis.
Frozen mid-LV sections are thawed at room temperature (30 min), immersed in acetone, rinsed in PBS (1×) and immersed in BSA (10 min each). Slides are then incubated with primary rabbit anti-human collagen-I Ab (Abcam ab 34710) (dilution 1/1000) and primary goat anti-human collagen-III Ab (Rnd NBP1 26547) (dilution 1/500) for 1 hour. Thereafter, slides are rinsed three times in PBS (1×) before being incubated with secondary antibodies donkey […] coupled with FITC (Jackson immunosearch 715-095-151) and donkey anti-goat coupled with Cy3 (Interchim A50-201D3) (dilution 1/400). After three rinses in PBS (1×), slides are mounted with a cover slip on a vecatshield+DAPI medium (Vector Laboratories). A minimum of 8/slide microscopic photographs (×20) were taken from Axiocam-Z1 (Zeiss) fluorescence microscope and analyzed with Image Pro-plus Software. Results are shown as mean±esm.

The test system of data set [4] is Salt-sensitive hypertension. As to the kind of experiment: Salt-sensitive hypertension (L-NAME plus High Salt Diet). It counts as in vivo, mice. Particulars: GP1 100 mg/kg/day in food, 10 days; FIG. 17. Here is the method:
Systolic BP was measured by tail-cuff plethysmography in trained conscious mice at weeks 8-10 using a BP2000 Visitech model. BP was measured every day in the same room at the same hour for 5 consecutive days. The BP measurements (expressed as mmHg) presented are the averages of the last 3 days Salt-sensitive hypertension was induced by co-administration of L-NAME 70 mg/l in drinking water together with 8% NaCl in chow food (High Salt Diet, HSD) for 10 days. GP1 (100 mg/kg/day) was added or not into the food. Control experiments included vehicle (control), L-NAME or high salt (HSD) alone. Systolic blood pressure (expressed as mmHg) was estimated in the last 3 days of treatment.

Data set [5] concerns CKD Mouse Model. As to the kind of experiment: Blood pressure in the CKD mouse model (subtotal nephrectomy). Particulars: two months administration; FIG. 13. It counts as in vivo, mice. Here is the method:
Systolic BP was measured by tail-cuff plethysmography in trained conscious mice at weeks 8-10 using a BP2000 Visitech model. BP was measured every day in the same room at the same hour for 5 consecutive days. The BP measurements (expressed as mmHg) presented are the averages of the last 3 days
as §1

The next data set concerns the target T1, CYP3A4 (Homo sapiens, UniProt P08684).
T1 construct: purchased Thermo Fisher Scientific
As to the kind of experiment: CYP3A4 inhibition assay (Vivid CYP3A4 assay). The format is in vitro ADME. How it is done: (§2) Two specific toxicity assays have been performed to assess hepatoxicity and cardiotoxicity. Hepatotoxicity was evaluated in isolated hepatocytes from swiss mice and determined by the MTT colorimetric assay. Cardiotoxicity was evaluated using the commercially available Predictor hERG fluorescence polarization kit (Thermo Fisher Scientific). Several ADME assays have been carried out on the compounds generated throughout the project. The following experiments were undertaken: Stability in human microsomes, binding to human plasma protein, and CYP3A4 inhibition assay (Vivid CYP3A4 assay, Thermo Fisher Scientific). Physico-chemical properties were also assessed such as aqueous solubility and chemical stability.

Data set [6] deals with isolated hepatocytes from swiss mice. The data set is described as follows: Hepatotoxicity, MTT colorimetric assay. It counts as cell-based. Here is the method:
as §2
(In general: Tetrazolium dyes change colour on reduction, which living cells bring about.)

The structures appear in SMILES notation.

T1 sequence (P08684 whole entry): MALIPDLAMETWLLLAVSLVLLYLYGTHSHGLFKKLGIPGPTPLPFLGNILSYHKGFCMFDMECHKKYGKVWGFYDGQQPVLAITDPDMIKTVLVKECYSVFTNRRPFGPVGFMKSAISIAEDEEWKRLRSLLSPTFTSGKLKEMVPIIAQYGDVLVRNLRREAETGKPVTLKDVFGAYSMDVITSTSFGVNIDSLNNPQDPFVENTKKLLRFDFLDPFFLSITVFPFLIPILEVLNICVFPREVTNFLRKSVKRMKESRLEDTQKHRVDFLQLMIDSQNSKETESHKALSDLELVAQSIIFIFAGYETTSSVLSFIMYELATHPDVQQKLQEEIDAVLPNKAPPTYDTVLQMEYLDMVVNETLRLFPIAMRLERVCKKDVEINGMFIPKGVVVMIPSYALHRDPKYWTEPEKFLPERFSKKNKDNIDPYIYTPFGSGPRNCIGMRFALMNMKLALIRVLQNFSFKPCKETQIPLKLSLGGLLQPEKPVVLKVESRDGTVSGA

In the case of `CC(=O)c1cccc(S(=O)(=O)NCc2ccccc2-n2cccn2)c1` [GPZ614741], the “fractional shortening (LV Frac. Short.)” value in data set [1] (FIG. 7 panel A) is “significant increase”. Further, in data set [1] (FIG. 7 panel D), the stroke volume result is recorded as “increased”. In addition, in data set [1] (FIG. 7 panel E), the cardiac output entry is listed as “increased”. In data set [1] (FIG. 7 panels B-C), the “LV diastolic diameter (LV Diast. Diam.)” value is on record as “slight although statistical non-significant decrease” and the “LV systolic diameter (LV Syst. Diam.)” value is given as “slight although statistical non-significant decrease”. Further, in data set [1] (FIG. 8 panel A), the “LV end-systolic pressure (LVESP)” value was “not modified”. Further, the “LV dP/dtmax” value in data set [1] (FIG. 8 panel B) is on record as “significant increase”. Moreover, the “LV end-diastolic pressure (LVEDP)” value in data set [1] (FIG. 8 panel C) is listed as “tended to be reduced”. Moreover, in data set [1] (FIG. 8 panel D), the “LV dP/dtmin” value was “increased”. Also, in data set [1] (FIG. 8 panel E), the “LV relaxation constant Tau” value was “decreased”. Moreover, in the data set with CKD Mouse Model [2], the “interstitial fibrosis associated to CKD (sirius red staining)” value is recorded as “strong antifibrotic effect”. Further, the “LV interstitial collagen density” value in data set [3] (FIG. 9 panel A) is “significant decrease”. The “Col I immunostaining” value in data set [3] (FIG. 9 panel B) is “decrease”. In addition, the “Col III immunostaining” value in data set [3] (FIG. 9 panel C) was “decrease”. For the same compound, the “increase of blood pressure induced by the combination of L-NAME and high salt (HSD)” value in data set [4] is reported as “prevented the increase”. Moreover, in the data set on CKD Mouse Model [5], the “increase of blood pressure induced by CKD” value was “prevented the increase”. The “processing by CYP3A4” value at CYP3A4 was “partially processed”. Further, the Activity on CYP3A4 (human, recombinant CYP3A4 (Vivid CYP3A4 assay kit), 100 = no inhibition, read-out: CyP 3A4 Inhibition % (100 = no inhibition)) is 72.2 ± 1.94%. In data set [6] (MTT up to 0.1 mM), the “hepatotoxicity (toxicity for hepatocytes)” value was “no toxicity”. Moreover, the Hepatotoxicity result in data set [6] (cell wrapped over two lines: No tox up / 100 uM) is recorded as “No tox up”.

Values taken from patent publication US20220054493A1, “INHIBITORS OF NGAL PROTEIN” (INSERM (INSTITUT NATIONAL DE LA SANTÉ ET DE LA RECHERCHE …, priority 2019, published 2022).
